Laboratory results reported in US20030207843A1, “Treatment of drug-resistant human immunodeficiency virus infection” (priority 1999, published 2003).
Like-named read-outs stand apart in the source and are kept apart here.

Tests used:
[1] = system: HIV-1LAI 4XAZT (D67N, K70R, T215Y, K219Q); assay: p24 reduction assay in MT-2 cells, 4XAZT; format: cell-based
Experimental: (§1) Cells. MT-2 cells (AIDS Research and Reference Reagent Program, National Institute of Allergy and Infectious Diseases, National Institutes of Health) were maintained in RPMI 1640 supplemented with 10% fetal bovine serum (FBS; JRH Biosciences, Lenexa, Kans.), 10 mM HEPES buffer, 50 IU/ml penicillin and 50 μg/ml streptomycin.
(§2) Antiviral Susceptibility Assays. The antiviral activity of each compound was determined by inoculating MT-2 cells with HIV-1LAI at a multiplicity of infection (MOI) of 0.01 TCID50/cell, followed by incubation in the presence of three-fold serial drug dilutions (3 wells per dilution) (see Mellors, et. al., Antimicrob. Agents Chemother. 39:1087-1092). Five or seven days after infection, culture supernatants were harvested, lysed with 0.5% triton-X 100 and assayed for p24 antigen concentration using a commercial ELISA assay (DuPont, NEN Products, Wilmington, Del.). The antiviral activity of the compounds is expressed as the IC50, which is the concentration required to inhibit 50% of p24 antigen production. The fold-resistance of a test virus is calculated by dividing the IC50 of the test virus by the IC50 of the HIV-1LAI control virus.
(§3) Generation of Mutant Recombinant HIV-1. HIV-1 containing the desired mutations were generated by oligonucleotide directed mutagenesis (Altered Sites II, Promega) as previously described (Mellors, et. al., Molecular Pharm. 41:446-451). After mutagenesis, mutant RT was subcloned into the pxxHIV-1LAI cloning vector using the silent XmaI and XbaI restriction sites located at the 5′ and 3′ ends of RT. Clones were DNA sequenced to verify the presence of the desired mutation(s) and electroporated into MT-2 cells as described above to generate infectious mutant recombinant HIV-1.
(§4) Mutant RT was generated via oligonucleotide-directed mutagenesis and ligated into the pXXHIV-1LAI cloning vector. Cloning was facilitated by the presence of two silent restriction sites at the 5′ and 3′ ends (Xma1 and Xba1, respectively) of pXXHIV-1LAI RT. Infectious mutant recombinant HIV-1 was generated by electroporating MT-2 cells with mutated pXXHIV-1LAI clones. The presence of the desired mutations was verified by DNA sequencing.
(§5) The multi-drug resistant HIV-1 strains, 11163p1 and 11588p1, are human clinical isolates having the RT mutations indicated. HIV-1 strains treated with the lipid analogs of the present invention include wild type, e.g., xxLAI, and the like, single mutation, e.g., xxLAI MI 84V (resistant to 3TC), xxLAI L74V (resistant to ddI and ddC), xxLAI K65R (resistant to ddI, ddC, DAPD, DXG, tenofovir, and adefovir), xxLAI T215Y (resistant to AZT), and the like, double mutations, e.g., xxLAI M41 L/T215Y (resistant to AZT), xxLAI MI 84V/T215Y (resistant to 3TC and AZT), and the like, and multiple mutations, e.g., xxLAI 4XAZT ((D67N, K70R, T215Y, K219Q) resistant to AZT)), xxLAI 4XAZT/M184V ((D67N, K70R, M 184V, T215Y, K219Q) resistant to AZT and 3TC), xxLAI M5456-12 (AZT+NNRTI resistant: D67N, K70R, K103N, T215Y), xxLAI G2-3g (AZT/3TC co-resistant: M41L, D67N, M184V, H208Y, L210W, R211K, L214F, T215Y, 1293V, E297A), 11163 (multinucleoside resistant virsus: M41L, A62V, V751, F77L, K103N, F116Y, Q151M, Y181C, M184V), 11588 (multinucleoside resistant virsus: A62V, K65R, K70R, V751, F77L, F116Y, Q151M, M184V, K219Q), and the like.

[2] = system: HIV-1LAI M41L/T215Y; assay: p24 reduction assay in MT-2 cells, M41L/T215Y; format: cell-based; conditions: for EC50: M41L/T215Y; for Fold-resistance: M41L/T215Y relative to wild type virus
Experimental: as §1, §2, §3, §4, §5

[3] = system: HIV-1LAI M184V; assay: p24 reduction assay in MT-2 cells, M184V; format: cell-based; conditions: for EC50: M184V; for Fold-resistance: M184V relative to wild type virus
Experimental: as §1, §2, §3, §4, §5

[4] = system: HIV-1LAI E89G; assay: p24 reduction assay in MT-2 cells, E89G; format: cell-based; conditions: Table 7; for EC50: E89G; for Fold-resistance: E89G relative to wild type virus
Experimental: as §1, §2, §3, §4
(§6) Invention compounds were also evaluated against a panel of HIV-1LAI derived recombinants resistant to PFA and the PFA invention compounds, as shown in Table 7.

[5] = system: NL4-3 (wild type virus); assay: p24 reduction assay in MT-2 cells, NL4-3; format: cell-based, HIV-1
[6] = system: HIV-1LAI Q161L; assay: p24 reduction assay in MT-2 cells, Q161L; format: cell-based; conditions: Table 7; for EC50: Q161L; for Fold-resistance: Q161L relative to wild type virus
Experimental: as §1, §2, §3, §4, §6

[7] = system: MT-2 cells; assay: In vitro selectivity index in MT-2 cells; format: cell-based; conditions: (50% cytotoxic dose/50% effective dose)×100
Experimental: The in vitro selectivity indexes for PFA and lipid analogs of PFA were determined in MT-2 cells and are as follows:
Note that the selectivity index ((50% cytotoxic dose/50% effective dose)×100) is much greater for the lipid analogs of PFA than for PFA itself. Since the lipid analogs have a much greater oral absorption than PFA, they may be given orally for controlling replication of drug-resistant HIV either alone or in combination with one or more antiviral agents. AZT is especially preferred in combination with the lipid analogs of PFA.

[8] = system: HIV-1LAI 4XAZT/W88S; assay: p24 reduction assay in MT-2 cells, 4XAZT/W88S; format: cell-based; conditions: Table 7; for EC50: 4XAZT/W88S; for Fold-resistance: 4XAZT/W88S relative to wild type virus
Experimental: as §1, §2, §3, §4, §6

[9] = system: K (multinucleoside resistant recombinant virus V75I, F77L, F116Y, Q151M); assay: p24 reduction assay in MT-2 cells, virus K; format: cell-based, HIV-1; conditions: Table 4; for Fold-resistance: virus K relative to wild type virus; for EC50: virus K, mean ± SD
Experimental: as §1, §2
The MNR panel consisted of a virus containing the mutations V75I, F77L, F116Y and […], a virus containing the T69S[SA insert], and a clinical isolate carrying the classic MNR genotype (62V/751/77L/116Y/151M). Each of the PFA invention compounds retained potency against these viruses with fold resistance values of <2.

[10] = Table 1, 4xAZT, MOI 0.01, read-out: EC50
[11] = Table 5, 4XAZT relative to wild type virus
[12] = Table 5, 4XAZT, mean ± SD, read-out: EC50
[13] = Table 7, 4XAZT relative to wild type virus
[14] = Human immunodeficiency virus 1, MT2, Table 1, MOI 0.01
[15] = Human immunodeficiency virus 1, MT2

Row | Compound | EC50 ([2]; Table 1, MOI 0.01) [µM] | Fold-resistance ([2]; Table 5) | EC50 ([2]; Table 5, mean ± SD) [µM] | EC50 ([3]; Table 1, MOI 0.01) [µM] | Fold-resistance ([3]; Table 3) | EC50 ([3]; Table 3, mean ± SD) [µM] | EC50 [4] [µM] | Fold-resistance [4] | EC50 ([5]; Table 4, mean ± SD) [µM] | EC50 [6] [µM] | Fold-resistance [6] | EC50 [1, 10] [µM] | Fold-resistance [1, 11] | EC50 [1, 12] [µM] | Fold-resistance [1, 13] | EC50 ([1]; Table 7, 4XAZT, read-out: EC50) [µM] | Selectivity Index [7] | EC50 [8] [µM] | Fold-resistance [8] | Fold-resistance [9] | other results
1 | Cc1cn([C@H]2C[C@H](N=[N+]=[N-])[C@@H](CO)O2)c(=O)[nH]c1=O [AZT, 3′-Azido-3′-deoxythymidine] |  |  |  |  |  |  |  |  |  |  |  |  |  |  |  |  |  |  |  |  | EC50 ([1]; Human immunodeficiency virus 1, MT2, Table 8, 4XAZT, read-out: AZT EC50): 0.29 ± 0.114 µM; Fold resistance ([1]; Table 8, 4XAZT relative to wild type virus): 7.3
2 | CCCCCCCCCCCCCCCCCCOC[C@@H](O)COP(=O)(O)C(=O)O [B-PFA, 1-O-octadecyl-sn-glycero-3-PFA] | 1.25 | (0.5) | 0.94 ± 1.08 | 2.29 | (0.7) | 1.93 ± 0.54 | > 30 | (>17.2) | 2.6 ± 1.5 | > 30 | (>17.2) | 1.25 | (0.8) | 1.47 ± 0.63 | 0.63 (0.8) | 1.47 | 781 | 4.09 | 1.84 (1.6) | (1.6) | EC50 [9]: 4.2 µM
3 | CCCCCCCCCCCCCCCCCCOC[C@H](COP(=O)(O)C(=O)O)OCC [EB-PFA, 1-O-octadecyl-2-O-ethyl-sn-glycero-3-PFA] | 0.41 | (0.5) | 0.3 ± 0.35 | 0.58 | (0.7) | 1.36 ± 0.93 | > 26.1 | (>29.0) | 0.2 ± 0.2 | 6.73 | 0.04 (7.5) | 0.33 | (0.5) | 0.34 ± 0.24 | 0.24 (0.5) | 0.34 | 1905 | 1.51 | 0.21 (1.9) |  | EC50 [9]: 0.9 ± 0.7 µM
4 | CCCCCCCCCCCCCCCCCCOC[C@H](COP(=O)(O)C(=O)O)OC [MB-PFA, 1-O-octadecyl-2-O-methyl-sn-glycero-3-PFA] | 0.13 | (0.4) | 0.18 ± 0.11 | 0.48 | (1.7) | 1.51 ± 0.45 | > 30 | (>39.0) | 2.3 ± 1.9 | 8.78 | 1.58 (11.4) | 0.46 | (1.2) | 0.58 ± 0.22 | 0.22 (1.2) | 0.58 | 953 | 1.54 | 0.81 (1.8) | (0.87) | EC50 [9]: 2 ± 0.6 µM
5 | O=C(O)P(=O)(O)O [PFA, phosphonoformate, reference compound] |  | (0.8) |  |  | (1.7) |  |  |  |  |  | 14.14 (8.8) |  | (0.7) |  | 8.07 (0.7) |  | 137 |  | 10.40 (1.0) | (0.7) | EC50 [2, 14]: 16.2 µM; EC50 ([2]; Human immunodeficiency virus 1, MT2, Table 5, mean ± SD): 13.9 ± 4.14 µM; EC50 [3, 14]: 15.7 µM; EC50 ([3]; Human immunodeficiency virus 1, MT2, Table 3, mean ± SD): 33.4 ± 18.7 µM; EC50 [4, 15]: 241 µM; EC50 ([5]; Human immunodeficiency virus 1, NL43, MT2, Table 4, mean ± SD): 15.1 ± 6.1 µM; EC50 [6, 15]: 115 µM; EC50 ([1]; Human immunodeficiency virus 1, MT2, Table 1, 4xAZT, MOI 0.01, read-out: EC50): 8.82 µM; EC50 ([1]; Human immunodeficiency virus 1, MT2, Table 5, 4XAZT, mean ± SD, read-out: EC50): 12.7 ± 8.07 µM; EC50 ([1]; Human immunodeficiency virus 1, MT2, Table 7, 4XAZT, read-out: EC50): 12.7 µM; EC50 [8, 15]: 18.4 µM; EC50 [9, 15]: 21.4 ± 15.6 µM
